Source: ChEMBL document CHEMBL1201862, “PubChem BioAssay data set” (2004)
Active and inactive are the calls of the source.

Assays:
DNA topoisomerase = DNA topoisomerase (Yersinia pestis, UniProt A0A2S9PM60); test: Yersinia topoisomerase I cleavage product accumulation – biochemical, cherry-pick, dose response (AID 588525)
NS3 = NS3 (Hepatitis C virus, UniProt A3EZJ3); test: PubChem AID 2173; design: species or system Hepacivirus hominis
[1] = system: Streptococcus sp. 'group A'; test: Streptococcus pyogenes SK(-)GAS viability under kanamycin – luminescence, BacTiterGlo, confirmation, counter-screen for streptokinase expression inhibitor project, dose response (AID 1900); format: functional, organism-based
Streptococcus = test: GAS UMAA2166 growth inhibition – luminescence, BacTiterGlo, counter-screen for streptokinase expression inhibitor project, dose response (AID 1915); format: functional, organism-based;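 also: potency for reduction of bacterial viability or growth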
Streptokinase A = target: T1, Streptokinase A (Streptococcus pyogenes serotype M1, UniProt P10520); test: viability-normalized secreted streptokinase activity reduction – plasminogen activation absorbance, OD405, dose response (AID 1914); format: functional, Streptococcus pyogenes M1 GAS;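 also: secreted streptokinase activity via plasminogen activation per viability signal from cell pellet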
T1 sequence (P10520 whole entry): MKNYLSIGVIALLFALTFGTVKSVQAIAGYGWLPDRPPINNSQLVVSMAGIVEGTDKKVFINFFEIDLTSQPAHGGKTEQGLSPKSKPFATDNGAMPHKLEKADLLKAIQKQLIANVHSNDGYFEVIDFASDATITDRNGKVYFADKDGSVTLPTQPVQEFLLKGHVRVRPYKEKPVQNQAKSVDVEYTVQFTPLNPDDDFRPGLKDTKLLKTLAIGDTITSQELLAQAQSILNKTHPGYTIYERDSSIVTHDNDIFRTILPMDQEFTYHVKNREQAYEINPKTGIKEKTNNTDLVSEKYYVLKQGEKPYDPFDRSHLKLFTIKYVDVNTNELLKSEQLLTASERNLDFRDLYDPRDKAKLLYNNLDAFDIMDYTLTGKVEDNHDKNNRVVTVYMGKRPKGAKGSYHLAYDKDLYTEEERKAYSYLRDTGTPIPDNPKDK

[2] = target: T2, Polyadenylate-binding protein 1 (Homo sapiens, UniProt P11940); test: MLLE binding blockers, Cy5 peptide tracer – biochemical, fluorescence polarization, Cy5-PAM2 peptide, secondary, miRNA deadenylation inhibitor project, dose response (AID 602260); format: functional; conditions: read-out: IC50_Mean
T2 sequence (P11940 whole entry): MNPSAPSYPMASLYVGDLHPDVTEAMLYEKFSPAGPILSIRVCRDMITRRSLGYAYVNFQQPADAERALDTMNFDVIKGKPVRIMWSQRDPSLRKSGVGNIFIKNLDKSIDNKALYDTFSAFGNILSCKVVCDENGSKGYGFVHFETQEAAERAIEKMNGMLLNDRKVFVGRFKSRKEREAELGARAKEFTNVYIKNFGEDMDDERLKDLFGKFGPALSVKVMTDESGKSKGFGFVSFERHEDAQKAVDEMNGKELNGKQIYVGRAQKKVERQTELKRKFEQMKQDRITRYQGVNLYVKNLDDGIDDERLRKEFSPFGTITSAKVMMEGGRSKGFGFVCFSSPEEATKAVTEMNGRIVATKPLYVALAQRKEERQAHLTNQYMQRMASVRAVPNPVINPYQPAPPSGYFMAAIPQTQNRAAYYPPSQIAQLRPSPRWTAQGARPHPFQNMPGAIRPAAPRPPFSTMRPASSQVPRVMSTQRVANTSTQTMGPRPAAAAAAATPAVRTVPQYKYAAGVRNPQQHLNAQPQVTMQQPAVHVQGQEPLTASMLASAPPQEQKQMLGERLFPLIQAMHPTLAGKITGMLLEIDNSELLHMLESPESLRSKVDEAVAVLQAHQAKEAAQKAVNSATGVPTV

Aminopeptidase N = target: T3, Aminopeptidase N (Plasmodium falciparum FcB1/Columbia, UniProt O96935); test: malaria alanyl aminopeptidase activity blockers – biochemical, fluorogenic H-Leu-NHMec substrate, 1536-well (AID 1445); design: species or system Plasmodium falciparum 3D7, 3D7
T3 sequence (O96935 whole entry): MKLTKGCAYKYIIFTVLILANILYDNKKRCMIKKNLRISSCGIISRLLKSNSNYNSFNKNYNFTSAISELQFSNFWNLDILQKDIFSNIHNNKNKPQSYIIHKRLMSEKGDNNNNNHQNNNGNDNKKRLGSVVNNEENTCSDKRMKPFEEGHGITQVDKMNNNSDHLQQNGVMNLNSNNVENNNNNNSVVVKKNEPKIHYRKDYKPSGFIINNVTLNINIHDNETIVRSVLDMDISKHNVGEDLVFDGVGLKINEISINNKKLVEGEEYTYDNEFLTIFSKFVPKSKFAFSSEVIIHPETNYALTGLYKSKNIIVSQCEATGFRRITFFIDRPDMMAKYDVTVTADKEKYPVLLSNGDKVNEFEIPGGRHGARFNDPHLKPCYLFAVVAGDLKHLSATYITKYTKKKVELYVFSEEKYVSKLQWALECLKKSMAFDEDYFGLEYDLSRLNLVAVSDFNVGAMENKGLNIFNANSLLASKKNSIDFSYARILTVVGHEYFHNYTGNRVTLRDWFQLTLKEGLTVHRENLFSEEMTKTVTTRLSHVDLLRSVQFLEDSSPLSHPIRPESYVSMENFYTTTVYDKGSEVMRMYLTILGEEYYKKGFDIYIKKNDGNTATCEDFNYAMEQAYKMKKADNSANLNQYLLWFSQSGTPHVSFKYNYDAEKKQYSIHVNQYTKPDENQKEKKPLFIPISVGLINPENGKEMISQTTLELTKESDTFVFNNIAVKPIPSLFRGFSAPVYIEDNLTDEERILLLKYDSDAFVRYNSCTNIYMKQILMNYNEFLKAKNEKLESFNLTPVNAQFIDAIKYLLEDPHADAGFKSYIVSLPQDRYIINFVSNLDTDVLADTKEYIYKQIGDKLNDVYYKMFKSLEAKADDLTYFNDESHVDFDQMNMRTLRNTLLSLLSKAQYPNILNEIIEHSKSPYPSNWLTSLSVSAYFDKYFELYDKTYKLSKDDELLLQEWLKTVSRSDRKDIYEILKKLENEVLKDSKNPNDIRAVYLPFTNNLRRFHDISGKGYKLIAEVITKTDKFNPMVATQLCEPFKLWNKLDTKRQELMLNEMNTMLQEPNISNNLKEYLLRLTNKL

[3] = Luminescence Cell-Based Dose Confirmation HTS to Identify Activators of 5'UTR Stem-Loop Driven Alpha-Synuclein mRNA Translation in H4 Neuroglioblastoma Cells. [Related pubchem assays: 1829 (Project Summary), 1814 (Primary HTS)]; format: functional
Genome polyprotein = Genome polyprotein (dengue virus type 2, UniProt P29990); test: flavivirus cap methylation enzyme inhibition – biochemical, confirmation dose response, primary screen (AID 588689); format: functional
Chain of Genome polyprotein (P29990 2492-3391 limits assumed): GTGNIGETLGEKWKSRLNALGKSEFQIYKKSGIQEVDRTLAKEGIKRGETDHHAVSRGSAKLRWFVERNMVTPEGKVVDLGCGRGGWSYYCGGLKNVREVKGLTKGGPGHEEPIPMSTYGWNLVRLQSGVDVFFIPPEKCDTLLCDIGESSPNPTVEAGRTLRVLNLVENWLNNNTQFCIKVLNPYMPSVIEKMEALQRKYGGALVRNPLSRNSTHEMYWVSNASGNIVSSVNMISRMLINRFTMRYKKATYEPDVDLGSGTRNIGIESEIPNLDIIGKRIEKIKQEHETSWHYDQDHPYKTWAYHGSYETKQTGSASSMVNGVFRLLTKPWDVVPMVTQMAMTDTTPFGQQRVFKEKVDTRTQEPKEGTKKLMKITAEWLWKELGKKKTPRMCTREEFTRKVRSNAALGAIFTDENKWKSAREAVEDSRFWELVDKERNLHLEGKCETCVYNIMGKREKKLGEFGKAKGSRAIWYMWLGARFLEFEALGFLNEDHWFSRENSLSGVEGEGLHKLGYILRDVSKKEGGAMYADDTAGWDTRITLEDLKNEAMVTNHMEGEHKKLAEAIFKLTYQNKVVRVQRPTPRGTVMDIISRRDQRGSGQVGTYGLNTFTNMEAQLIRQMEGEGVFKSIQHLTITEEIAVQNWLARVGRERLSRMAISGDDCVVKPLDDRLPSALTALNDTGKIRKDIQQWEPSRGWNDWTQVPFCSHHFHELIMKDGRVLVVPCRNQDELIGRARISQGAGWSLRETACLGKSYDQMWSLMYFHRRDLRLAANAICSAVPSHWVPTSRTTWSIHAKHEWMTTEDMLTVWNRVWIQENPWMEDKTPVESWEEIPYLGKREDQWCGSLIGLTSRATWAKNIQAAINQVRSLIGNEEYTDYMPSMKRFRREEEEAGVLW

[4] = Luminescence Cell-Based Dose Response HTS to Identify Activators of Luciferase Translation or Activity in H4 […] Cells. [Related pubchem assays: 1829 (Project Summary), 1814 (Primary HTS)]; format: functional
[5] = target: T2, Polyadenylate-binding protein 1; test: MLLE domain peptide-binding blockers, IC50 – biochemical, fluorescence polarization, FITC-PAM2 peptide, dose response (AID 602259); format: functional; conditions: read-out: IC50_Mean
[6] = target: Glucose-6-phosphate 1-dehydrogenase (Homo sapiens, UniProt P11413); test: inhibition of Homo sapiens G6PD, dose series – biochemical, fluorescence, selectivity assay for P. falciparum G6PD inhibitor project, dose response (AID 504792); format: functional
Chain of Glucose-6-phosphate 1-dehydrogenase (P11413 whole entry): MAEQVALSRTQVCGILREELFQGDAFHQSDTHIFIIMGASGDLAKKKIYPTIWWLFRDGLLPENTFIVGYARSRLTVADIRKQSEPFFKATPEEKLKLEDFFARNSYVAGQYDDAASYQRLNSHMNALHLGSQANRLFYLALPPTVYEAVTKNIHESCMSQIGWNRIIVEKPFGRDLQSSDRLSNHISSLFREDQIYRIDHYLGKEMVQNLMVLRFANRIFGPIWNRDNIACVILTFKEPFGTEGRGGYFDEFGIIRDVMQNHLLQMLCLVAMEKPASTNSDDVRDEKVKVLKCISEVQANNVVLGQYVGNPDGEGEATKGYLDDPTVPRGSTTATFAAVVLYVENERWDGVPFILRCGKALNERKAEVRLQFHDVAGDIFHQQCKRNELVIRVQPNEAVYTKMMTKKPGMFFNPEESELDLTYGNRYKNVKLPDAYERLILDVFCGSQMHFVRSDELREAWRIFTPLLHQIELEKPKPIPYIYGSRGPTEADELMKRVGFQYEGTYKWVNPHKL

[7] = target: T4, Replicative DNA helicase DnaB (Mycobacterium tuberculosis, UniProt P9WMR3); test: DnaB intein splicing inhibitors, dose response, biochemical, cell-free fluorescence (AID 449749); format: functional
T4 sequence (P9WMR3 whole entry): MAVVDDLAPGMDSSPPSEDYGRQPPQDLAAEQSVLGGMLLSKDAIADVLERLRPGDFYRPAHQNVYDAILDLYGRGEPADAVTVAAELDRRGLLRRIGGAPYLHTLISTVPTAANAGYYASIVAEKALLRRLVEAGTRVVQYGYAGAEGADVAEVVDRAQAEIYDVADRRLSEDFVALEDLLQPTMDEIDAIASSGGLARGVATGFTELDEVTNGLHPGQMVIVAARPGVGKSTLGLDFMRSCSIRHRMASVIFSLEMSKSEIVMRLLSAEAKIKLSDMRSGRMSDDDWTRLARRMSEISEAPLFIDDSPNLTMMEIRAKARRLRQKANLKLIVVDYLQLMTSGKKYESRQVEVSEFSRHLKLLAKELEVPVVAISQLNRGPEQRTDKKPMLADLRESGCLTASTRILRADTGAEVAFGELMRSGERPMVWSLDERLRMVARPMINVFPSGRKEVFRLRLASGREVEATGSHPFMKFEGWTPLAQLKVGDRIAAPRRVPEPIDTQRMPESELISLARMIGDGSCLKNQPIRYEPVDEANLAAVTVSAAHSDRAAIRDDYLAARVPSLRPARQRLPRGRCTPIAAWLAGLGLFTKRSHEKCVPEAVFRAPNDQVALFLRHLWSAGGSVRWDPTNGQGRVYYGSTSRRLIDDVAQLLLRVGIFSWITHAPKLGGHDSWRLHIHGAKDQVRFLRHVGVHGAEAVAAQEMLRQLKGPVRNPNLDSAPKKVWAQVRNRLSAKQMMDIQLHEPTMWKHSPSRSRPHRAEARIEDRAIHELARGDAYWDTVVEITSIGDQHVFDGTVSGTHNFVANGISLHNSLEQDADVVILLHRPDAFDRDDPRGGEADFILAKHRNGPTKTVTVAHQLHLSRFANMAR

Protein RecA = target: T5, Protein RecA (Mycobacterium tuberculosis, UniProt P9WHJ3); test: Fluorescence Cell-Free Homogeneous Dose Retest to Identify Inhibitors of RecA-Intein Splicing Activity. [Related pubchem assays (depositor defined):AID2097, AID2223, AID489010, AID492950]; format: functional
T5 sequence (P9WHJ3 whole entry): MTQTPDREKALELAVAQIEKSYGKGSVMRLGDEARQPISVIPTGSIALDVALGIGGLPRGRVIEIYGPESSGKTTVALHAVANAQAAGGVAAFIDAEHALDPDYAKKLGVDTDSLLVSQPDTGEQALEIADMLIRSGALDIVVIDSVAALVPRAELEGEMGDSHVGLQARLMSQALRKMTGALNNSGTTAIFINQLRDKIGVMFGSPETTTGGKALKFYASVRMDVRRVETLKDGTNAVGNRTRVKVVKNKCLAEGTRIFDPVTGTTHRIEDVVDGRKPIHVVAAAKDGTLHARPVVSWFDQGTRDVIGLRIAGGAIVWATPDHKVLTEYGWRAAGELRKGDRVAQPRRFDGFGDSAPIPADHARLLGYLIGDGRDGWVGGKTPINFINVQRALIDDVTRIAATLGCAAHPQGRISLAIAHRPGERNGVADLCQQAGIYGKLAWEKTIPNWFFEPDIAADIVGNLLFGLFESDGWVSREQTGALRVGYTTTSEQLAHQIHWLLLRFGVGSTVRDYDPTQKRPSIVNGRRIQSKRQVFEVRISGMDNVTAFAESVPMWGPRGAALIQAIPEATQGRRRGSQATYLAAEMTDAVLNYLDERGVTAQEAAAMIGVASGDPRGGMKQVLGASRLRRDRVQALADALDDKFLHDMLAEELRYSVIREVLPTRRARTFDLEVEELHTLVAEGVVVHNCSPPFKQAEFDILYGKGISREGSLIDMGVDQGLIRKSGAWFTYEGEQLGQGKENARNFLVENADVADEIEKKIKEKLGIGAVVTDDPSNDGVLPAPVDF

[8] = target: Induced myeloid leukemia cell differentiation protein Mcl-1 (Homo sapiens, UniProt Q07820); format: functional
Chain of Induced myeloid leukemia cell differentiation protein Mcl-1 (Q07820 whole entry): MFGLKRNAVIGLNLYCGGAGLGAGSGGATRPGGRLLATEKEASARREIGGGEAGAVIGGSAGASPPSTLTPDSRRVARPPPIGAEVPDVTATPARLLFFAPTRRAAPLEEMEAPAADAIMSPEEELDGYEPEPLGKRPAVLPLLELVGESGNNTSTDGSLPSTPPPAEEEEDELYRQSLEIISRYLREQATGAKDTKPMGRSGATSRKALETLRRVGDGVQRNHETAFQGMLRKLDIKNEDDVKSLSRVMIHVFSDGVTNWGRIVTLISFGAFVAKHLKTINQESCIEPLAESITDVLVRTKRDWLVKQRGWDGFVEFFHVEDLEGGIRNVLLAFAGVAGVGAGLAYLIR

H4 = test: Luminescence Cell-Based Dose Response HTS to Identify Activators of 5'UTR Stem-Loop Driven Prion Protein mRNA Translation in H4 Neuroglioblastoma Cells. [Related pubchem assays: 1829 (Project Summary), 1814 (Primary HTS)]; format: functional; conditions: Homo sapiens
[9] = mitochondrial function rescue without frataxin homolog – Friedreich's ataxia, plus single-dose screen, dose response (AID 1465); format: functional;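 also: yeast depleted of Yfh1p frataxin homolog grown on glycerol needing respiration; WST-1 tetrazolium dye reduction as measure of cellular dehydrogenase metabolic activity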
Vero = test: viability of Vero cells under compound – cytotoxicity control for flavivirus capping enzyme inhibitors (AID 588742); format: functional; conditions: Chlorocebus sabaeus

Chain of NS3 (A3EZJ3 whole entry): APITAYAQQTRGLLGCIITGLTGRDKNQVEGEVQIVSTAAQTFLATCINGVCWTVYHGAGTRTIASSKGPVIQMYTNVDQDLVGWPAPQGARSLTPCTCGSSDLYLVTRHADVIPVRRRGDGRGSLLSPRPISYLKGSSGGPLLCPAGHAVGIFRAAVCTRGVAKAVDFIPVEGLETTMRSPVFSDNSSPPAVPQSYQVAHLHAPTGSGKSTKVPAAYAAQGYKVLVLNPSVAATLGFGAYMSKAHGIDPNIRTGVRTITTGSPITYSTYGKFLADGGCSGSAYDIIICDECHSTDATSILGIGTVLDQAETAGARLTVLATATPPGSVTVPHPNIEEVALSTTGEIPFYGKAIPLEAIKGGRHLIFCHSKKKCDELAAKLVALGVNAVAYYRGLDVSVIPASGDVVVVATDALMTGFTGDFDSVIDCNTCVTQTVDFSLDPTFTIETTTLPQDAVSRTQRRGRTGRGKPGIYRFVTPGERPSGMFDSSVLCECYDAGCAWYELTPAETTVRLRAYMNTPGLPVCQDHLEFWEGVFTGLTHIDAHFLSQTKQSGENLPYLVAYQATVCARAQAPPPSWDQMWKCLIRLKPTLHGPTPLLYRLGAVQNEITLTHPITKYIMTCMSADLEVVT
Chain of DNA topoisomerase (A0A2S9PM60 whole entry): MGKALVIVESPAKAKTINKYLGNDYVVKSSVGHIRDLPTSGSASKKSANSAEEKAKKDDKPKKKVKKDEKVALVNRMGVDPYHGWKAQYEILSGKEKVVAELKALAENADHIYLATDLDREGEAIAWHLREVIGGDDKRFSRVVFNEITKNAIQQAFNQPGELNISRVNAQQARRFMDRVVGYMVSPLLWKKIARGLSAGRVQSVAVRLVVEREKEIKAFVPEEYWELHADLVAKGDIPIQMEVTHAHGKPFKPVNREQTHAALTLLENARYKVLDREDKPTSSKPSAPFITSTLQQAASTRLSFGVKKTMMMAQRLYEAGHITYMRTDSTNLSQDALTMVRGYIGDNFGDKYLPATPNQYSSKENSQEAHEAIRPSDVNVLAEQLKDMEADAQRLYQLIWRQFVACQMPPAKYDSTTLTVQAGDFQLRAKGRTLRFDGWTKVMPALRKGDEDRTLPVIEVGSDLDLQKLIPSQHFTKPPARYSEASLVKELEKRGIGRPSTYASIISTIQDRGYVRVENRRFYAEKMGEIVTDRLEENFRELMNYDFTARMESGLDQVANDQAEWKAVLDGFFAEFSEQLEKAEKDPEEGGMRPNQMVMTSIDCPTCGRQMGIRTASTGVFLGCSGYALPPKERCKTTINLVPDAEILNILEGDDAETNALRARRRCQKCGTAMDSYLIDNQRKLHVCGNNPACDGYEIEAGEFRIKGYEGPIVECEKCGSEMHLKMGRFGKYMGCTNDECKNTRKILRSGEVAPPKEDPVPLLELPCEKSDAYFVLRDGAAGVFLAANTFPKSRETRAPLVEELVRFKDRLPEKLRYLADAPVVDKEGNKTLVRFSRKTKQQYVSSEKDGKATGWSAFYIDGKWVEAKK

| Structure (SMILES) | AC50 (DNA topoisomerase) | IC50 (NS3) | EC50 [1] | EC50 (Streptococcus) | EC50 (Streptokinase A) | IC50 [2] | IC50 (Aminopeptidase N) | EC50 [3] | IC50 (Genome polyprotein) | EC50 [4] | IC50 [5] | IC50 [6] | AC50 [7] | EC50 (Protein RecA) | IC50 [8] | EC50 (H4) | EC50 [9] | CC50 (Vero) |
| --- | --- | --- | --- | --- | --- | --- | --- | --- | --- | --- | --- | --- | --- | --- | --- | --- | --- | --- |
| Cc1ccc(C2C(C(=O)c3cc4ccccc4o3)=C(O)C(=O)N2c2cc(C)on2)cc1 (stereo not drawn) | 8.86 µM (active) | 2.49 µM (active) | 2.28 µM (active) | 6.76 µM (active) | 6.3 µM (active) |  |  |  |  |  |  |  |  |  |  |  |  |  |
| Cc1ccc(S(=O)(=O)/N=C2/C=C(C3C(=O)CC(C)(C)CC3=O)C(=O)c3ccccc32)cc1 |  |  |  |  |  | > 66 µM (inactive) | 34.5 µM (active) | 8.21 µM (active) | 10.1 µM (active) | 42.1 µM (active) | > 66 µM (inactive) | > 80 µM (inactive) | 113 µM (active) | 3.22 µM (active) | 2.13 µM (active) | 46.4 µM (active) | > 100 µM (active) | > 40 µM (active) |
